The test addresses T1, Aβ1-42 (Homo sapiens, UniProt P05067).
T1 construct: Amyloid β peptide (Aβ1-42) was purchased from GeneCust as a lyophilised powder; purchased GeneCust
As to the kind of experiment: biochemical. Particulars: read-out: Inhib. Aβ Aggreg. Self-Induced. As to the method: The anti-amyloidogenic activity of all the compounds was also evaluated in vitro, in the absence and in presence of Cu(II), by measuring the fluorescence emission of Thioflavin T (ThT).
The spectrofluorimetric method, based on the fluorescence emission of thioflavin T (ThT), was used to study the Aβ1-42 aggregation inhibition. Firstly, Aβ1-42 was dissolved in HFIP (1,1,1,3,3,3-Hexafluoro-2-propanol) and kept overnight at room temperature in order to obtain a dry film. […] The ligand solutions were prepared with MeOH (1mg/mL) and further with phosphate buffer. […] As a control, a solution of 30 μL of phosphate buffer and 30 μL of Aβ1-42 was used to observe the aggregation without any inhibition, while the ligand assay solutions were composed of 20 μL of phosphate buffer, 30 μL of Aβ1-42 and 10 μL of ligand. The Cu-induced aggregation studies were similarly conducted, adding 10 μL of CuCl2 to induce the fibril aggregation. Each experiment was composed of an assay and a blank sample, where the blank sample lacks Aβ1-42, to monitor the effect of the compounds on the fluorescence emission. The samples were left to incubate in a CERTOMAT WR water bath for 24 h at 37 °C with shaking. After 24 h, a Glycine-NaOH buffer (pH = 8.5) containing ThT were added to each sample in a microplate. The fluorescence signal was monitored at 446 nm (λexc) and 486 nm (λem) with a Varian Cary Eclipse fluorimeter. Amyloid β peptide (Aβ1-42) was purchased from GeneCust as a lyophilised powder and stored at −20 °C [12, 13, 14].

Data on one compound can be found in publication PMC7830597, “Derivatives of Tenuazonic Acid as Potential New Multi-Target Anti-Alzheimer’s Disease Agents” (Biomolecules, 2021).

T1 sequence (P05067 672-713 limits assumed): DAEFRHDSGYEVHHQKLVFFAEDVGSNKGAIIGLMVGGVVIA

On to `Nc1c2c(nc3ccccc13)CCCC2` [Tacrine, reference compound], for which the inhibition at 40 µM was determined as 31.2%.
